Test results published in patent publication US5440016A, “Peptides of the formula (KFmoc) ZZZ and their uses” (priority 1993, dated 1995).
Square brackets hold non-standard residues; d marks the D form. Peptide text beside a SMILES is read from it. * marks the point of attachment. Met(O2) = CS(=O)(=O)CC[C@H](N)C(=O)O; Fmoc = O=C(OCC1c2ccccc2-c2ccccc21)*; Nle = CCCC[C@H](N)C(=O)O; Orn = NCCC[C@H](N)C(=O)O; Thz = O=C(O)[C@@H]1CSCN1; Aib = CC(C)(N)C(=O)O; βAla = NCCC(=O)O

Test system: Human red blood cells (RBCs)
Experiment: Hemolytic activity
Type: cell-based
Method: Each assay was carried out in 96-well culture tissue plates. Four wells per plate contain 125 μl of a non-peptide positive control (1% Triton in de-ionized water), and four wells per plate contain 125 μl of a control blank, phosphate buffered saline (PBS). The hemolytic peptide melittin was used as comparative control. The controls served to detect possible contamination and to calculate the percent hemolysis of each peptide. Human red blood cells (RBCs) were washed with PBS and centrifuged to separate them from the serum. The cells were then resuspended in PBS to a final suspension of 0.5% RBC. 125 μl of this suspension was added to the peptides and controls solution. The release of hemoglobin resulting from the cell lysis was determined by measuring the OD at 414 nm of 100 μl of the supernatant.

SMILES	HD50 (concentration necessary to lyse 50% of the cells) (Tables 18-21) [µg/mL]	HD50 (concentration necessary to lyse 50% of the cells) (Table 20, lower part) [μg/m]
NCCCC[C@H](NC(=O)OCC1c2ccccc2-c2ccccc21)C(=O)N[C@@H](Cc1c[nH]c2ccccc12)C(=O)N[C@@H](CCCCN)C(=O)N[C@@H](Cc1ccccc1)C(N)=O [(KFmoc)WKF-NH2] (Fmoc-KWKF-NH2)	105	
NCCCC[C@H](NC(=O)OCC1c2ccccc2-c2ccccc21)C(=O)N[C@@H](Cc1c[nH]c2ccccc12)C(=O)N[C@@H](Cc1ccc(O)cc1)C(=O)N1CCC[C@H]1C(N)=O [(KFmoc)WYP-NH2] (Fmoc-KWYP-NH2)	97	
CC[C@H](C)[C@H](NC(=O)[C@H](CCCCN)NC(=O)[C@H](Cc1c[nH]c2ccccc12)NC(=O)[C@H](CCCCN)NC(=O)OCC1c2ccccc2-c2ccccc21)C(N)=O [(KFmoc)WKI-NH2] (Fmoc-KWKI-NH2)	141	
CC[C@@H](C)[C@@H](NC(=O)[C@@H](CS)NC(=O)[C@H](CCCCN)NC(=O)OCC1c2ccccc2-c2ccccc21)C(=O)NC(C)(C)C(N)=O [(KFmoc)ci(aAIB)-NH2] (Fmoc-K[dC][dI][Aib]-NH2)	28	
CC[C@@H](C)[C@@H](NC(=O)[C@@H](CS)NC(=O)[C@H](CCCCN)NC(=O)OCC1c2ccccc2-c2ccccc21)C(=O)N[C@@H](CCS(C)(=O)=O)C(N)=O [(KFmoc)ci(MetO2)-NH2] (Fmoc-K[dC][dI][Met(O2)]-NH2)	40	
NCCCC[C@H](NC(=O)OCC1c2ccccc2-c2ccccc21)C(=O)N[C@@H](Cc1c[nH]c2ccccc12)C(=O)N[C@@H](Cc1ccc(O)cc1)C(=O)N[C@@H](CS)C(N)=O [(KFmoc)WYC-NH2] (Fmoc-KWYC-NH2)	267	
NCCCC[C@H](NC(=O)OCC1c2ccccc2-c2ccccc21)C(=O)N[C@@H](Cc1c[nH]c2ccccc12)C(=O)N[C@H](Cc1ccccc1)C(=O)N1CSC[C@H]1C(N)=O [(KFmoc)Wf(Thiopro)-NH2] (Fmoc-KW[dF][Thz]-NH2)		45
NCCCC[C@H](NC(=O)OCC1c2ccccc2-c2ccccc21)C(=O)N[C@@H](Cc1c[nH]c2ccccc12)C(=O)N[C@H](Cc1ccccc1)C(=O)N[C@@H](CCCN)C(N)=O [(KFmoc)Wf(Orn)-NH2] (Fmoc-KW[dF][Orn]-NH2)		64
C[C@@H](O)[C@H](NC(=O)[C@H](Cc1ccc(O)cc1)NC(=O)[C@H](Cc1c[nH]c2ccccc12)NC(=O)[C@H](CCCCN)NC(=O)OCC1c2ccccc2-c2ccccc21)C(N)=O [(KFmoc)WYT-NH2] (Fmoc-KWYT-NH2)	53	
C[C@H](NC(=O)[C@H](CCCCN)NC(=O)[C@H](Cc1c[nH]c2ccccc12)NC(=O)[C@H](CCCCN)NC(=O)OCC1c2ccccc2-c2ccccc21)C(N)=O [(KFmoc)WKA-NH2] (Fmoc-KWKA-NH2)	378	
NCCCC[C@H](NC(=O)OCC1c2ccccc2-c2ccccc21)C(=O)N[C@@H](Cc1c[nH]c2ccccc12)C(=O)N[C@H](Cc1ccccc1)C(=O)N[C@H](Cc1c[nH]c2ccccc12)C(N)=O [(KFmoc)Wfw-NH2] (Fmoc-KW[dF][dW]-NH2)	36	
CC(C)C[C@H](NC(=O)[C@@H](Cc1ccccc1)NC(=O)[C@H](Cc1c[nH]c2ccccc12)NC(=O)[C@H](CCCCN)NC(=O)OCC1c2ccccc2-c2ccccc21)C(N)=O [(KFmoc)WfL-NH2] (Fmoc-KW[dF]L-NH2)	294	
CC[C@@H](C)[C@@H](NC(=O)[C@@H](CS)NC(=O)[C@H](CCCCN)NC(=O)OCC1c2ccccc2-c2ccccc21)C(=O)N[C@@H](Cc1ccccc1)C(N)=O [(KFmoc)ciF-NH2] (Fmoc-K[dC][dI]F-NH2)	295	
NCCCC[C@H](NC(=O)[C@H](CCCCN)NC(=O)[C@H](Cc1c[nH]c2ccccc12)NC(=O)[C@H](CCCCN)NC(=O)OCC1c2ccccc2-c2ccccc21)C(N)=O [(KFmoc)WKK-NH2] (Fmoc-KWKK-NH2)	469	
CC[C@@H](C)[C@@H](NC(=O)[C@@H](CS)NC(=O)[C@H](CCCCN)NC(=O)OCC1c2ccccc2-c2ccccc21)C(=O)NCCC(N)=O [(KFmoc)ci(Bala)-NH2] (Fmoc-K[dC][dI][βAla]-NH2)	37	
CS(=O)(=O)CC[C@H](NC(=O)[C@@H](Cc1ccccc1)NC(=O)[C@H](Cc1c[nH]c2ccccc12)NC(=O)[C@H](CCCCN)NC(=O)OCC1c2ccccc2-c2ccccc21)C(N)=O [(KFmoc)Wf(MetO2)-NH2] (Fmoc-KW[dF][Met(O2)]-NH2)		44
NCCCC[C@H](NC(=O)OCC1c2ccccc2-c2ccccc21)C(=O)N[C@@H](Cc1c[nH]c2ccccc12)C(=O)N[C@@H](Cc1ccc(O)cc1)C(=O)N[C@@H](Cc1c[nH]cn1)C(N)=O [(KFmoc)WYH-NH2] (Fmoc-KWYH-NH2)	139	
CCCC[C@H](NC(=O)[C@H](CCCCN)NC(=O)[C@H](Cc1c[nH]c2ccccc12)NC(=O)[C@H](CCCCN)NC(=O)OCC1c2ccccc2-c2ccccc21)C(N)=O [(KFmoc)WK(Nle)-NH2] (Fmoc-KWK[Nle]-NH2)	91	
CC[C@@H](C)[C@@H](NC(=O)[C@@H](CS)NC(=O)[C@H](CCCCN)NC(=O)OCC1c2ccccc2-c2ccccc21)C(=O)N[C@@H](C)C(N)=O [(KFmoc)ciA-NH2] (Fmoc-K[dC][dI]A-NH2)	68	
CC(C)[C@H](NC(=O)[C@H](CCCCN)NC(=O)[C@H](Cc1c[nH]c2ccccc12)NC(=O)[C@H](CCCCN)NC(=O)OCC1c2ccccc2-c2ccccc21)C(N)=O [(KFmoc)WKV-NH2] (Fmoc-KWKV-NH2)	137	
NCCCC[C@H](NC(=O)[C@H](Cc1ccc(O)cc1)NC(=O)[C@H](Cc1c[nH]c2ccccc12)NC(=O)[C@H](CCCCN)NC(=O)OCC1c2ccccc2-c2ccccc21)C(N)=O [(KFmoc)WYK-NH2] (Fmoc-KWYK-NH2)	65	
CC[C@@H](C)[C@@H](NC(=O)[C@@H](CS)NC(=O)[C@H](CCCCN)NC(=O)OCC1c2ccccc2-c2ccccc21)C(=O)N[C@@H](CCCN)C(N)=O [(KFmoc)ci(Orn)-NH2] (Fmoc-K[dC][dI][Orn]-NH2)	77	
NCCCC[C@H](NC(=O)OCC1c2ccccc2-c2ccccc21)C(=O)N[C@@H](Cc1c[nH]c2ccccc12)C(=O)N[C@@H](Cc1ccc(O)cc1)C(=O)N[C@@H](CCCN)C(N)=O [(KFmoc)WY(Orn)-NH2] (Fmoc-KWY[Orn]-NH2)	62	
CC[C@H](C)[C@H](NC(=O)[C@@H](Cc1ccccc1)NC(=O)[C@H](Cc1c[nH]c2ccccc12)NC(=O)[C@H](CCCCN)NC(=O)OCC1c2ccccc2-c2ccccc21)C(N)=O [(KFmoc)WfI-NH2] (Fmoc-KW[dF]I-NH2)	208	
NCCCC[C@H](NC(=O)OCC1c2ccccc2-c2ccccc21)C(=O)N[C@@H](Cc1c[nH]c2ccccc12)C(=O)N[C@@H](Cc1ccc(O)cc1)C(=O)NCC(N)=O [(KFmoc)WYG-NH2] (Fmoc-KWYG-NH2)	376	
